Results as given in ChEMBL document CHEMBL4368940, “Development of a novel NURR1/NOT agonist from hit to lead and candidate for the potential treatment of Parkinson's disease” (Bioorg Med Chem Lett, 2019).
Values belong to the compound of their own block, whether it stands above or below them.

What was measured:
[1] = target: Nuclear receptor subfamily 4 group A member 2 (Homo sapiens, UniProt P43354); assay: Agonist activity at full-length Gal4-fused NOT (unknown origin) expressed in CHO cells by luciferase reporter gene assay; format: cell-based
Chain of Nuclear receptor subfamily 4 group A member 2 (Homo sapiens, UniProt P43354) (P43354 whole entry, the tested form may be a part): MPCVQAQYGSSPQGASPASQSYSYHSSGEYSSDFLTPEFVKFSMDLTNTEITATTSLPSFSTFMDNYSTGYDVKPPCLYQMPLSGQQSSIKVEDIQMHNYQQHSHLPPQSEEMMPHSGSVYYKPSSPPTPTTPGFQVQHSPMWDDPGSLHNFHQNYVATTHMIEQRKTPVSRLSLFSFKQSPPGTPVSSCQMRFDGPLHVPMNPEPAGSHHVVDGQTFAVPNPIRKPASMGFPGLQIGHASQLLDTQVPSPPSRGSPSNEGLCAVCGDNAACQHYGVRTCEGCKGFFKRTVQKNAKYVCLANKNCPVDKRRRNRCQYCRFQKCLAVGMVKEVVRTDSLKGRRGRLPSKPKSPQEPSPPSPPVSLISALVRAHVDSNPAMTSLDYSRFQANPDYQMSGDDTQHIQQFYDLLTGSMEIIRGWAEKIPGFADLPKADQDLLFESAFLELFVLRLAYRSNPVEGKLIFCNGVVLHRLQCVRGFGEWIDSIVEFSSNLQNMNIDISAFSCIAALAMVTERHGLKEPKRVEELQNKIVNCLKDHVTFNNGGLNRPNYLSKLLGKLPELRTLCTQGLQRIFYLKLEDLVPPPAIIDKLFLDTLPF

[2] = Drug level in mouse liver microsomes treated with N-phenyl-6-(pyridin-2-yl)imidazo[1,2-a]pyridine-2-carboxamide assessed as metabolite formation; format: ADME, Microsome
[3] = target: Nuclear receptor subfamily 4 group A member 2 (Mus musculus) (UniProt Q06219); assay: (§1) Agonist activity at Nurr1 in mouse N2A cells harboring NBRE by luciferase reporter gene assay; format: cell-based
Chain of Nuclear receptor subfamily 4 group A member 2 (Mus musculus) (Q06219 whole entry): as the sequence (P43354 whole entry, the tested form may be a part) above, with T131S, G134S, E354D counted along it

[4] = target: Nuclear receptor subfamily 4 group A member 2 (Mus musculus, UniProt Q06219); assay: as §1; format: cell-based
Chain of Nuclear receptor subfamily 4 group A member 2 (Mus musculus, UniProt Q06219) (Q06219 whole entry): as the sequence (P43354 whole entry, the tested form may be a part) above, with T131S, G134S, E354D counted along it

[5] = Clearance in human hepatocytes assessed per million cells; format: ADME, cell-based, Hepatocyte
hERG = hERG (Homo sapiens, UniProt Q12809); assay: Inhibition of human ERG at 10 uM
Chain of hERG (Q12809 whole entry): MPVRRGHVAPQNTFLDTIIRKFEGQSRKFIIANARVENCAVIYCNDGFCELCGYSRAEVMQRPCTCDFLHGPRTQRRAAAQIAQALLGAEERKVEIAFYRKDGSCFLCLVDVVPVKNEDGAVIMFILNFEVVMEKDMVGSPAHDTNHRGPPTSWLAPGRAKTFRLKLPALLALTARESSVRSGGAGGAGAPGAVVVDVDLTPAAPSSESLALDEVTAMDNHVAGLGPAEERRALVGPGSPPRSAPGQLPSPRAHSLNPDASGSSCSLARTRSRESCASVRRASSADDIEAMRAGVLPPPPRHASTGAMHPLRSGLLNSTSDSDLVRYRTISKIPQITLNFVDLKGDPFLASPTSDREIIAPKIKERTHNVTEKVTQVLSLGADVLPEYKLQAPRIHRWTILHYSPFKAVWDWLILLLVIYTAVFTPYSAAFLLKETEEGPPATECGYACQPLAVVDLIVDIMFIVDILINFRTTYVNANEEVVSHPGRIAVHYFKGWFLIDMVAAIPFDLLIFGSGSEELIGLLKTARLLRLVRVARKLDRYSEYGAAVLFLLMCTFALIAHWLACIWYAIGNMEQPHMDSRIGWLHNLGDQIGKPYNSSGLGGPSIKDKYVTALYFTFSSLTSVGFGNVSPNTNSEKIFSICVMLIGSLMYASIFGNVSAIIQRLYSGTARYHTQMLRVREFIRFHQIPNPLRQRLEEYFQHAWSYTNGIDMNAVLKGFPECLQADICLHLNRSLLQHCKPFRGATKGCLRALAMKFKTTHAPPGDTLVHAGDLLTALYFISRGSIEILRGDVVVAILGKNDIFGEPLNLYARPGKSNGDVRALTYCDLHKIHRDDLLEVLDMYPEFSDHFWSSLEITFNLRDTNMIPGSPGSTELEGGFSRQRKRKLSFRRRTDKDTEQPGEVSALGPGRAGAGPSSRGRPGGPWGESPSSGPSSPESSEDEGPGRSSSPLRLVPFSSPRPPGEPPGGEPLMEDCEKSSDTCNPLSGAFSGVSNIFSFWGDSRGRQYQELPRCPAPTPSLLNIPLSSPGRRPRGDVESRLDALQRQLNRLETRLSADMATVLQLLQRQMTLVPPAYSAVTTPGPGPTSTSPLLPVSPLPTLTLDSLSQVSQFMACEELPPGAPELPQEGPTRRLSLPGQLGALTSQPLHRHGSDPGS

[6] = Drug level in human hepatocytes treated with (3-(2-(4-chlorophenyl)imidazo[1,2-a]pyridin-6-yl)phenyl)methanol; format: ADME, cell-based, Hepatocyte
[7] = target: Nuclear receptor subfamily 4 group A member 2 (Rattus norvegicus) (UniProt Q07917); assay: Agonist activity at Nurr1 in rat mesencephalic primary neurons assessed as increase in tyrosine hydroxylase expression at 3 uM
Chain of Nuclear receptor subfamily 4 group A member 2 (Rattus norvegicus) (Q07917 whole entry): as the sequence (P43354 whole entry, the tested form may be a part) above, with T131S, P182R, E354D counted along it

[8] = target: Nuclear receptor subfamily 4 group A member 2 (Mus musculus) (UniProt Q06219); assay: Agonist activity at Nurr1 in mouse MG7 cells assessed as inhibition of LPS-induced IL1beta secretion at 3 uM; format: cell-based
[9] = Solubility of the compound by HPLC analysis; format: physicochemical
[10] = Stability in human plasma; format: ADME, cell-free
[11] = Stability in mouse plasma; format: ADME, cell-free
[12] = Lipophilicity, log D of the compound; format: physicochemical; details: octanol/water
[13] = Dissociation constant, pKa of the compound; format: physicochemical
[14] = Apparent permeability in human Caco2 cells; format: ADME, cell-based; details: caco-2
[15] = Drug metabolism in mouse liver microsomes; format: ADME, Microsome; details: read-out: Drug metabolism
[16] = Drug metabolism in human liver microsomes; format: ADME, Microsome; details: read-out: Drug metabolism
Cytochrome P450 3A4 = Cytochrome P450 3A4 (Homo sapiens, UniProt P08684); assay: Inhibition of CYP3A4 (unknown origin); format: ADME
Chain of Cytochrome P450 3A4 (P08684 whole entry): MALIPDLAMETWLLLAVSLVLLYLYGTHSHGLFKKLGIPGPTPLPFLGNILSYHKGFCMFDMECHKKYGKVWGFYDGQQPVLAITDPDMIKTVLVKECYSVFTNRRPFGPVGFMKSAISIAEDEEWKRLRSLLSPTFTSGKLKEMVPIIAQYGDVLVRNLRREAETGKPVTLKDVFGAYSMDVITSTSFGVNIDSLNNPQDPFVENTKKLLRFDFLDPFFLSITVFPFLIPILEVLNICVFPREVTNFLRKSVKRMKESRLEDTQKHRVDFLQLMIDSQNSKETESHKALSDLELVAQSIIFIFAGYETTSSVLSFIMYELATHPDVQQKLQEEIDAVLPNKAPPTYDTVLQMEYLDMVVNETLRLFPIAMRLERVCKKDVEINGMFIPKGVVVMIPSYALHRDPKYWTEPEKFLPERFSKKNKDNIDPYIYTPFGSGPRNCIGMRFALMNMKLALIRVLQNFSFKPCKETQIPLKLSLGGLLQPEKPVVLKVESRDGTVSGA

Cytochrome P450 2D6 = Cytochrome P450 2D6 (Homo sapiens, UniProt P10635); assay: Inhibition of CYP2D6 (unknown origin); format: ADME
Chain of Cytochrome P450 2D6 (P10635 whole entry): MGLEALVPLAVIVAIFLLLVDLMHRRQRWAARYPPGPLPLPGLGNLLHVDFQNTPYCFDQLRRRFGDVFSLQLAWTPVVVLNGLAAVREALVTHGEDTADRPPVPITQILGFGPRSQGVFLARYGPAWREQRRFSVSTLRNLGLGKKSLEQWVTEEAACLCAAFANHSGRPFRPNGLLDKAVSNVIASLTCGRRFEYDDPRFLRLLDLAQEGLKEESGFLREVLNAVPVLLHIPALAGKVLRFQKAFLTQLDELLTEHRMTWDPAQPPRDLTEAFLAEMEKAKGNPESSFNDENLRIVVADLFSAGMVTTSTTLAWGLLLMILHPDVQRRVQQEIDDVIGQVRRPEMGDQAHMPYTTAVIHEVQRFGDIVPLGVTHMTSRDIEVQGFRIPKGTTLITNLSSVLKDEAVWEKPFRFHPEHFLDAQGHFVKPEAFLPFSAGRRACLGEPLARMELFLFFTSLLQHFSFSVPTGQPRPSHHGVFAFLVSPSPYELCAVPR

Cytochrome P450 2C9 = Cytochrome P450 2C9 (Homo sapiens, UniProt P11712); assay: Inhibition of CYP2C9 (unknown origin); format: ADME
Chain of Cytochrome P450 2C9 (P11712 whole entry): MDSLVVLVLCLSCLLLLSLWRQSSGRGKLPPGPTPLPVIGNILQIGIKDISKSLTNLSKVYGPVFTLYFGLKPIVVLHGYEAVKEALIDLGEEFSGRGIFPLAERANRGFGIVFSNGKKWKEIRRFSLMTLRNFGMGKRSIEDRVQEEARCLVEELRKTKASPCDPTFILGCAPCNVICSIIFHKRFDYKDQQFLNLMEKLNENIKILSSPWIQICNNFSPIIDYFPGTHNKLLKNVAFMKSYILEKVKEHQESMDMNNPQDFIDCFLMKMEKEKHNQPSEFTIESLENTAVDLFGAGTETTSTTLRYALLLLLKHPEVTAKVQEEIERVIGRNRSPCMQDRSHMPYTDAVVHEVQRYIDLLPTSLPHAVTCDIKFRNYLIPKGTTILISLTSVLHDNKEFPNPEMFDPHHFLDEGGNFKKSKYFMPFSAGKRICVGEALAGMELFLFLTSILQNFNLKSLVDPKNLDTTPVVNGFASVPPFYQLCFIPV

CYP450 = CYP450 (Homo sapiens, UniProt P04798+P05177+P05181+P08684+P10632+P10635+P11509+P11712+P13584+P20813+P20815+P20853+P24462+P24903+P33260+P33261+P51589+P78329+P98187+Q02928+Q08477+Q16678+Q16696+Q5TCH4+Q6VVX0+Q7Z449+Q8TAV3+Q96SQ9+Q9HB55); assay: Induction of CYP450 (unknown origin); format: ADME, protein assay
[17] = target: Voltage-gated inwardly rectifying potassium channel KCNH2 (Homo sapiens, UniProt Q12809); assay: Activation of human ERG
Chain of Voltage-gated inwardly rectifying potassium channel KCNH2 (Q12809 whole entry): as the sequence (Q12809 whole entry) above

[18] = Genotoxicity in Salmonella typhimurium by Ames test; format: toxicity; details: salmonella enterica subsp. enterica serovar typhimurium
[19] = Drug metabolism in human hepatocytes assessed as 3-(2-(4-chlorophenyl)imidazo[1,2-a]pyridin-6-yl)benzoic acid formation; format: ADME, cell-based, Hepatocyte
[20] = target: Nuclear receptor subfamily 4 group A member 2 (Mus musculus) (UniProt Q06219); assay: Agonist activity at Nurr1 in co-culture of mouse primary neurons and microglia assessed as inhibition of LPS-induced neurotoxicity by measuring neuroprotection at 3 uM; set-up: scale not given: the % may be the effect or the level left
[21] = target: Nuclear receptor subfamily 4 group A member 2 (Mus musculus) (UniProt Q06219); assay: Agonist activity at Nurr1 in co-culture of mouse primary neurons and microglia assessed as inhibition of LPS-induced neurotoxicity by measuring neuroprotection at 10 uM; set-up: scale not given: the % may be the effect or the level left

Structure (SMILES): OCc1cccc(-c2cn3cc(-c4ccc(Cl)cc4)nc3cn2)c1
- EC50 ([1]; cho): Not Active

Structure (SMILES): CN(C)Cc1cccc(-c2ccc3nc(-c4ccc(Cl)cc4)cn3c2)c1
- EC50 ([1]; read-out: EC50): > 3000 nM

Structure (SMILES): OC(c1ccccc1)c1cccc(-c2ccc3nc(-c4ccc(Cl)cc4)cn3c2)c1 (stereo not drawn)
- EC50 ([1]; read-out: EC50): > 3000 nM

Structure (SMILES): Nc1ccccc1 [ANILINE]
- Drug metabolism [2]: Metabolite_Detected

Structure (SMILES): OCc1cccc(-c2ccc3nc(-c4ccc(Cl)cc4)nn3n2)c1
- EC50 ([1]; cho): Not Active

Structure (SMILES): CNCc1cccc(-c2ccc3nc(-c4ccc(Cl)cc4)cn3c2)c1
- EC50 ([1]; read-out: EC50): > 3000 nM

Structure (SMILES): CC(O)c1cccc(-c2ccc3nc(-c4ccc(Cl)cc4)cn3c2)c1 (single isomer, unassigned; (-))
- EC50 ([1]; read-out: EC50): 219 nM

Structure (SMILES): Cc1c(CO)cccc1-c1ccc2nc(-c3ccc(Cl)cc3)cn2c1
- EC50 ([1]; read-out: EC50): > 1000 nM

Structure (SMILES): CCCCC(O)c1cccc(-c2ccc3nc(-c4ccc(Cl)cc4)cn3c2)c1 (stereo not drawn)
- EC50 ([1]; read-out: EC50): > 3000 nM

Structure (SMILES): OC1(c2cccc(-c3ccc4nc(-c5ccc(Cl)cc5)cn4c3)c2)COC1
- EC50 ([1]; read-out: EC50): 323 nM

Structure (SMILES): Cc1ccc(-c2ccc3nc(-c4ccc(Cl)cc4)cn3c2)cc1CO
- EC50 ([1]; read-out: EC50): > 1000 nM

Structure (SMILES): OC(c1cccc(-c2ccc3nc(-c4ccc(Cl)cc4)cn3c2)c1)C1CCCC1 (stereo not drawn)
- EC50 ([1]; read-out: EC50): > 3000 nM

Structure (SMILES): CCCCCCC(O)c1cccc(-c2ccc3nc(-c4ccc(Cl)cc4)cn3c2)c1 (stereo not drawn)
- EC50 ([1]; read-out: EC50): > 3000 nM

The next lines start with results.

- Emax [3]: 85%
- EC50 [4]: 55 nM
- EC50 ([1]; read-out: EC50): > 1000 nM
Structure (SMILES): O=C(Nc1cnoc1)c1cn2cc(-c3ccccn3)ccc2n1

- Emax [3]: 85%
- EC50 [4]: 2.5 nM
- EC50 ([1]; read-out: EC50): > 1000 nM
Structure (SMILES): O=C(Nc1cc(F)cc(F)c1)c1cn2cc(-c3ccccn3)ccc2n1

- Emax [3]: 68%
- EC50 [4]: 1 nM
- EC50 ([1]; read-out: EC50): > 1000 nM
Structure (SMILES): O=C(Nc1cc(F)ccc1F)c1cn2cc(-c3ccccn3)ccc2n1

- EC50 ([1]; read-out: EC50): 38 nM
- CLH [5]: 0.1368 mL/h
Structure (SMILES): OCc1c(F)ccc(-c2ccc3nc(-c4ccc(Cl)cc4)cn3c2)c1F
- inhibition at 10 µM (hERG): 24%

- EC50 ([1]; read-out: EC50): > 1000 nM
Structure (SMILES): OCc1cc(-c2ccc3nc(-c4ccc(Cl)cc4)cn3c2)ccc1F

- Emax [3]: 61%
- EC50 ([1]; read-out: EC50): > 1000 nM
Structure (SMILES): O=C(Nc1cc[nH]n1)c1cn2cc(-c3ccccn3)ccc2n1

- Emax [3]: 72%
- EC50 ([1]; read-out: EC50): > 1000 nM
Structure (SMILES): O=C(Nc1nccs1)c1cn2cc(-c3ccccn3)ccc2n1

- Drug metabolism [6]: Metabolite_Detected
Structure (SMILES): O=C(O)c1cccc(-c2ccc3nc(-c4ccc(Cl)cc4)cn3c2)c1

- Emax [3]: 240%
- EC50 [4]: 1 nM
- Emax [1]: 239%
- EC50 ([1]; read-out: EC50): 45 to 75 nM
- Activity [7]: 188 to 313%
- inhibition [8]: 58%
- solubility [9]: < 1 µM
- Stability [10]: Stable
- Stability [11]: Stable
- logD [12]: 2.95
- pKa [13]: 5.16
- permeability [14]: Permeable
- metabolised [15]: 8%
- metabolised [16]: 22%
- CLH [5]: 0.42 mL/h
- IC50 (Cytochrome P450 3A4): > 10 µM
- IC50 (Cytochrome P450 2D6): > 10 µM
- IC50 (Cytochrome P450 2C9): 8.6 µM
- Emax (CYP450): < 20%
- Drug metabolism [19]: Metabolite_Detected
Structure (SMILES): OCc1cccc(-c2ccc3nc(-c4ccc(Cl)cc4)cn3c2)c1
- EC50 [17]: 900 nM
- Activity [18]: Non-Toxic
- Activity [20]: 37%
- Activity [21]: 65%

- EC50 ([1]; read-out: EC50): 75 nM
- CLH [5]: 0.45 mL/h
Structure (SMILES): CC(O)c1cccc(-c2ccc3nc(-c4ccc(Cl)cc4)cn3c2)c1 (single isomer, unassigned; (+))

- Emax [3]: 68%
- EC50 [4]: 26.5 nM
- EC50 ([1]; read-out: EC50): > 1000 nM
Structure (SMILES): O=C(Nc1ccccc1Cl)c1cn2cc(-c3ccccn3)ccc2n1

- Emax [3]: 64%
- EC50 ([1]; read-out: EC50): > 1000 nM
Structure (SMILES): O=C(Nc1cccc(F)c1F)c1cn2cc(-c3ccccn3)ccc2n1

- Emax [1]: 226%
Structure (SMILES): CNC(=O)c1cccc(-c2ccc3nc(-c4ccc(Cl)cc4)cn3c2)c1
